Assay results taken from US20250136581A1, “SUBSTITUTED TRIAZOLE DERIVATIVE, PREPARATION METHOD THEREFOR, PHARMACEUTICAL COMPOSITION THEREOF, AND USE THEREOF” (SHANGHAI SIMR BIOTECHNOLOGY CO., LTD., priority 2021, published 2025).

Columns and labels:
[1] = biological target: human α5β3γ2 receptors (α5-GABAA receptor) (Homo sapiens (Human), UniProt P18507+P31644); experiment: 3H-flunitrazepam competition binding, human α5β3γ2 GABAA receptor; conditions: HEK293 cell membranes, 1 nM 3H-flunitrazepam; read-out: α5-GABAAR Ki
Outline: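 HEK293 membranes stably expressing each human receptor subtype ([…]) competed against 1 nM 3H-flunitrazepam in Tris buffer, 1 h at room temperature; flumazenil defined the low-signal control. Eight-point 4-fold test-compound dilutions; GF/C filtration and scintillation counting gave IC50 by curve fitting, converted to Ki.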

human α1β3γ2 receptors = human α1β3γ2 receptors (Homo sapiens (Human), UniProt P14867+P18507); experiment: 3H-flunitrazepam competition binding, human α1β3γ2 GABAA receptor; conditions: HEK293 cell membranes, 1 nM 3H-flunitrazepam; read-out: Ki α1
Description: (§1) The affinity of the compound to each subtype of GABAA receptor was determined by competing for the binding of ^3H-flunitrazepam to HEK293 cells stably expressing human α1β3γ2, α2β3γ2, α3β3γ2, and α5β3γ2 receptors.
(§2) The cells were suspended in 50 mM Tris-HCl buffer (pH=7.4), homogenized 10 times on ice with a homogenizer for 20 seconds, and centrifuged at 1000 g for 10 minutes at 4° C. The supernatant was collected, and the above steps were repeated. The supernatant was centrifuged at 4° C. (33800 g; Thermo, rotor: A27-8×50) for 60 minutes, and the precipitate was resuspended in Tris buffer (50 mM Tris-HCl, 10 mM MgCl2, 0.5 mM EDTA, 10% glycerol). Protein was measured (BCA method, Pierce), and 1 mL aliquots were prepared and stored at −80° C.
(§3) The radioligand competition binding assay was performed in a 200 μL system (96-well plate) containing 100 μL of cell membrane. The concentration of ^3H-flunitrazepam was 1 nM and the concentration of the test compound was in the range of […]. Flumazenil was used as a control. 1 μL of 2 mM flumazenil (final concentration […]) was added to the low signal control well (Low control, LC), and 1 μL of DMSO was added to the high signal control well (High control, HC). The final concentration of target membrane protein was […]. All test compound sample storage solutions were 10 mM. The working concentration of the samples was to dilute all the samples to 0.2 mM with DMSO, followed by 4-fold serial gradient dilutions for a total of 8 concentration gradients. The 96-well plate was sealed with a sealing film, and then incubated on a shaker at room temperature for 1 hour. At the same time, the GF/C filter plate was soaked in soaking buffer (0.3% PEI, stored at 4° C.) for at least 0.5 hours. After the binding incubation was completed, the cells were collected onto a GF/C filter plate using a cell harvester. The plate was washed four times with washing buffer (50 mM Tris-HCl, pH 7.4, stored at 4° C.). After drying in a 50° C. oven for 1 hour, the bottom of the dried GF/C filter plate was sealed. The residual radioactivity on the filter membrane was detected using liquid scintillation counting. 50 μL of scintillation fluid was added to each well, and the plate was sealed. The readings were taken using a Microbeta2. The inhibitory activity of the test sample on the binding of ^3H-flunitrazepam to GABAA receptor membrane proteins was calculated, and the IC50 of each test sample was calculated by dose-effect curve fitting (GraphPad Prism 5 software), and the Ki of the sample was calculated from the IC50, thus evaluating the binding ability of the sample to the various subtypes of GABAA receptors.

human α3β3γ2 receptors = human α3β3γ2 receptors (Homo sapiens (Human), UniProt P18507+P34903); experiment: 3H-flunitrazepam competition binding, human α3β3γ2 GABAA receptor; conditions: HEK293 cell membranes, 1 nM 3H-flunitrazepam; read-out: Ki α3
Description: as §1, §2, §3

human α2β3γ2 receptors = human α2β3γ2 receptors (Homo sapiens (Human), UniProt P18507+P47869); experiment: 3H-flunitrazepam competition binding, human α2β3γ2 GABAA receptor; conditions: HEK293 cell membranes, 1 nM 3H-flunitrazepam; read-out: Ki α2
Description: as §1, §2, §3

[2] = biological target: α5-GABAA receptor (α5, β3, γ2 subunits) (Homo sapiens (Human), UniProt P18507+P31644); experiment: Whole cell patch clamp, inverse agonist efficacy in HEK293 cells expressing α5-GABAA receptor; format: cell-based; conditions: HEK293, drug 100 nM, GABA 0.05 μM, −60 mV; read-out: Compound inverse agonist efficacy %
Outline: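 Stable HEK293 line co-expressing human α5, β3, γ2 subunits; whole-cell patch clamp at −60 mV, inward current evoked by 0.05 μM GABA, then compound at 100 nM in GABA solution applied. Effect derived from leak, pre- and post-drug GABA currents.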

| Ki [1] [nM] | Ki (human α1β3γ2 receptors) [nM] | Ki (human α3β3γ2 receptors) [nM] | Ki (human α2β3γ2 receptors) [nM] | inhibition at 0.1 µM [2] [%] | Compound |
| --- | --- | --- | --- | --- | --- |
| 0.89 | 80.5 | 17 | 22.2 | 40.4 | Cc1nnn(-c2ccc(C(F)F)cc2)c1COc1ccc(N2CC(=O)NC3(CC3)C2)nn1 [Example 8, 7-(6-((1-(4-(Difluoromethyl)phenyl)-4-methyl-1H-1,2,3-triazol-5-yl)methoxy)pyridazin-3-yl)-4,7-diazaspiro[2.5]octan-5-one] |
| 0.52 | 15.8 | 7.34 | 10.4 | 53.7 | Cc1nnn(-c2ccc(C(F)F)cc2)c1COc1ccc(N2CCNC2=O)nn1 [Example 19, 1-(6-((1-(4-(Difluoromethyl)phenyl)-4-methyl-1H-1,2,3-triazol-5-yl)methoxy)pyridazin-3-yl)imidazolidin-2-one] |
| 3.65 | 333 | 135 | 107 | 59.1 | Cc1nnn(-c2ccc(C(F)F)cc2)c1COc1ccc(N2CCN[C@H](C(=O)O)C2)nn1 [Example 27, (S)-4-(6-((1-(4-(Difluoromethyl)phenyl)-4-methyl-1H-1,2,3-triazol-5-yl)methoxy)pyridazin-3-yl)piperazine-2-carboxylic acid] |
| 2.55 | 294 | 49.8 | 71.6 | 50.9 | Cc1nnn(-c2ccc(C(F)F)cc2)c1COc1ccc(N2CCN3CCNC(=O)[C@@H]3C2)nn1 [Example 54, (S)-8-(6-((1-(4-(Difluoromethyl)phenyl)-4-methyl-1H-1,2,3-triazol-5-yl)methoxy)pyridazin-3-yl)hexahydro-2H-pyrazino[1,2-a]pyrazin-1(6H)-one] |
| 0.39 | 178 | 27.5 | 56.4 | 51.6 | Cc1nnn(-c2ccc(C(F)F)cc2)c1COc1ccc(N2CCN3CCNC(=O)[C@H]3C2)nn1 [Example 55, (R)-8-(6-((1-(4-(Difluoromethyl)phenyl)-4-methyl-1H-1,2,3-triazol-5-yl)methoxy)pyridazin-3-yl)hexahydro-2H-pyrazino[1,2-a]pyrazin-1(6H)-one] |
| 0.84 | 56.9 | 14 | 17.1 | 50.5 | Cc1nnn(-c2ccc(C(F)F)cc2)c1COc1ccc(N2CC(=O)N3CCNCC3C2)nn1 (stereo not shown) [Example 68, 2-(6-((1-(4-(Difluoromethyl)phenyl)-4-methyl-1H-1,2,3-triazol-5-yl)methoxy)pyridazin-3-yl)hexahydro-1H-pyrazino[1,2-a]pyrazin-4-(6H)-one] |
| 2.87 | 832 | 173 | 301 | 45.3 | Cc1nnn(-c2ccc(F)cc2)c1COc1ccc(N2CCNC(=O)C2)nn1 [Example 76, 4-(6-((1-(4-Fluorophenyl)-4-methyl-1H-1,2,3-triazol-5-yl)methoxy)pyridazin-3-yl)piperazin-2-one] |
| 2.03 | 246 | 28.4 | 45.9 | 43.7 | N#Cc1nnn(-c2ccc(C(F)F)cc2)c1COc1ccc(N2CCNC(=O)C2)nn1 [Example 78, 1-(4-(Difluoromethyl)phenyl)-5-(((6-(3-oxopiperazin-1-yl)pyridazin-3-yl)oxy)methyl)-1H-1,2,3-triazole-4-carbonitrile] |
| 0.82 | 161 | 16 | 22.7 | 54.8 | O=C1CN(c2ccc(OCc3c(CO)nnn3-c3ccc(C(F)F)cc3)nn2)CCN1 [Example 80, 4-(6-((1-(4-(Difluoromethyl)phenyl)-4-(hydroxymethyl)-1H-1,2,3-triazol-5-yl)methoxy)pyridazin-3-yl)piperazin-2-one] |
| 1.27 | 52.8 | 10.3 | 40.1 | 49.6 | Cc1nnn(-c2ccc(C(F)F)cc2)c1COc1ccc(N2CC(C(=O)Nc3cnn(C)c3)C2)nn1 [Example 103, 1-(6-((1-(4-(Difluoromethyl)phenyl)-4-methyl-1H-1,2,3-triazol-5-yl)methoxy)pyridazin-3-yl)-N-(1-methyl-1H-pyrazol-4-yl)azetidine-3-carboxamide] |
| 1.66 | 65.2 | 22.7 | 50.1 | 48.4 | Cc1nnn(-c2ccc(C(F)F)cc2)c1COc1ccc(N2C[C@H]3C[C@@H]2C(=O)N3)nn1 [Example 116, (1R,4R)-5-(6-((1-(4-(Difluoromethyl)phenyl)-4-methyl-1H-1,2,3-triazol-5-yl)methoxy)pyridazin-3-yl)-2,5-diazabicyclo[2.2.1]heptan-3-one] |
| 2.46 | 266 | 67.3 | 149 | 48.7 | Cc1nnn(-c2ccc(C(F)F)cc2)c1COc1ccc(N2CCN3c4ccccc4NC(=O)[C@@H]3C2)nn1 [Example 122, (S)-3-(6-((1-(4-(Difluoromethyl)phenyl)-4-methyl-1H-1,2,3-triazol-5-yl)methoxy)pyridazin-3-yl)-2,trans-3,4,4a-tetrahydro-1H-pyrazino[1,2-a]quinoxalin-5(6H)-one] |
| 2.08 | 400 | 36.7 | 23.7 | 55 | Cn1nnc(-c2ccc(C(F)F)cc2)c1COc1ccc(N2CCNC(=O)C2)nn1 [Example 127, 4-(6-((4-(4-(Difluoromethyl)phenyl)-1-methyl-1H-1,2,3-triazol-5-yl)methoxy)pyridazin-3-yl)piperazin-2-one] |
| 9.75 | 911 | 195 | 168 | 56.3 | Cc1ccc(-n2nnc(C)c2COc2ccc(N3CCN4CCNC(=O)[C@@H]4C3)nn2)cc1 [Example 129, (S)-8-(6-((4-Methyl-1-(p-tolyl)-1H-1,2,3-triazol-5-yl)methoxy)pyridazin-3-yl)octahydro-1H-pyrazino[1,2-a]pyrazin-1-one] |
| 2.5 | 445 | 56.2 | 117 | 42.6 | Cc1nnn(-c2ccc(C(F)F)cc2)c1COc1ccc(N2CCN3CCN(C4CC4)C(=O)[C@@H]3C2)nn1 [Example 148, (S)-2-Cyclopropyl-8-(6-((1-(4-(difluoromethyl)phenyl)-4-methyl-1H-1,2,3-triazol-5-yl)methoxy)pyridazin-3-yl)hexahydro-2H-pyrazino[1,2-a]pyrazin-1(6H)-one] |

| Compound | Ki [1] [nM] | Ki (human α1β3γ2 receptors) [nM] | Ki (human α3β3γ2 receptors) [nM] | Ki (human α2β3γ2 receptors) [nM] | inhibition at 0.1 µM [2] [%] |
| --- | --- | --- | --- | --- | --- |
| CCNC(=O)C1CN(c2ccc(OCc3c(C)nnn3-c3ccc(C(F)F)cc3)nn2)C1 [Example 43, 1-(6-[(1-(4-(Difluoromethyl)phenyl)-4-methyl-1H-1,2,3-triazol-5-yl)methoxy]pyridazin-3-yl)-N-ethylazetidine-3-carboxamide] | 4.49 | 149 | 18.5 | 72.7 | 52.2 |
| Cc1nnn(-c2ccc(C(F)F)cc2)c1COc1ccc(N2CCN(CCN3CCCC3)C(=O)C2)nn1 [Example 61, 4-(6-((1-(4-(Difluoromethyl)phenyl)-4-methyl-1H-1,2,3-triazol-5-yl)methoxy)pyridazin-3-yl)-1-(2-(pyrrolidin-1-yl)ethyl)piperazin-2-one] | 2.12 | 126 | 13.1 | 26 | 49 |
